Measurements taken from patent publication US12404249B2, “Heterocyclic derivatives and use thereof” (C&C RESEARCH LABORATORIES, priority 2018, dated 2025).

Key:
[1] = test system: prostate cancer cell line (LNCap); assay: Cell growth inhibition assay (Celltiter Glo); assay type: cell-based; details: Homo sapiens, LNCap cells, 120 hours incubation
Procedure: Cancer cell inhibitory effects by the compounds of the Examples were evaluated as follows. The prostate cancer cell line (LNCap) used was cultured under the condition according to the vendor's recommendation. LNCap was dispensed into a 96-well plate at 10,000 cells/well. After incubation under the condition of 37° C. and 5% CO2 for 24 hours, the Example compounds of 50 mM DMSO stock were diluted to various concentrations and treated to the 96-well plate containing cells. After treatment of the Example compounds, LNCap cells were incubated in an incubator (37° C., 5% CO2) for 120 hours. After each incubation time, the 96-well plate was observed under a microscope to record the presence or absence of drug precipitation and specificities, and the 96-well plate was kept at room temperature for 30 minutes. Then, after addition of 20 μL of Celltiter Glo solution, the 96-well plate was well shaken for 30 minutes. The growth inhibitory activity was measured on microLUMA LB96P (BERTHOLD) instrument using Glo-vial protocol. As a negative control, a 96 well-plate in which culture medium was added but cells were not plated was used. As a positive control, a 96 well-plate in which cells were plated and 0.1% DMSO instead of drugs was added was used. The results of growth inhibitory effects of the Example compounds on prostate cancer cell line are represented in Table 2.

[2] = molecular target: T1, STAT3 (Homo sapiens, UniProt P40763); assay: STAT3 activation inhibition assay (reporter gene assay, LNcaP stable cell line, IL-6 stimulated); assay type: cell-based; details: LNcaP stable cell line [plasmid STAT3-TA-luc], IL-6 10 ng/mL, 48 hours, luciferase activity; read-out: IC50 (μM) pSTAT3
T1 construct: endogenous in cells; host or cells: LNCaP (human prostate cancer) stably carrying pSTAT3-TA-luc reporter plasmid
T1 sequence (P40763 whole entry): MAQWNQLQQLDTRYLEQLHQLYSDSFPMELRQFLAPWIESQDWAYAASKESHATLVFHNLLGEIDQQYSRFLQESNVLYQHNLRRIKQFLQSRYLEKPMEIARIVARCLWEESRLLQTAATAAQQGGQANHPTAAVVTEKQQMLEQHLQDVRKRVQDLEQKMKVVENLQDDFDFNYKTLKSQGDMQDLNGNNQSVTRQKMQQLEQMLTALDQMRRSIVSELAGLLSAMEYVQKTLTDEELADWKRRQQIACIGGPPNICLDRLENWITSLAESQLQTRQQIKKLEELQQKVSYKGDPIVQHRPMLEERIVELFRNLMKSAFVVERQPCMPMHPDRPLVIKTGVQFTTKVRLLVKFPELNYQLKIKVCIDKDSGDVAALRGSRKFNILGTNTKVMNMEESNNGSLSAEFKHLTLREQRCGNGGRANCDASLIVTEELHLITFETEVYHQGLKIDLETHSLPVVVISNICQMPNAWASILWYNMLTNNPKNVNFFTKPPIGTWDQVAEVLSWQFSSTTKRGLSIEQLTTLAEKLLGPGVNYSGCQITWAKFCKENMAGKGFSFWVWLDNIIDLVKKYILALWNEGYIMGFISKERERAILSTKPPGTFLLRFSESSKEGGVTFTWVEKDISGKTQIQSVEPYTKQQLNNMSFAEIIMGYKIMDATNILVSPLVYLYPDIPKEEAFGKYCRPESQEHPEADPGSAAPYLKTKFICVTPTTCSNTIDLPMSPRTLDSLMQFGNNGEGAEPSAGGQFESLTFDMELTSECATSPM
Procedure: Cancer cell lines used for evaluating the compounds of the Examples were purchased from ATCC (American Type Culture Collection) or KCLB (Korean Cell Line Bank), and cultured according to the vendor's recommendation. The human prostate cancer cell line stably expressing the STAT3 promoter (LNcaP stable cell line [plasmid STAT3-TA-luc])—which was prepared to evaluate the inhibitory effect of the compounds of the Examples against dimerization of STAT3—was cultured in RPMI1640 (Cat no. 11875, Gibco), 10% fetal bovine serum (Cat no. SH30071.03, Hyclone) and 150 μg/mL G418 solution (Cat no. 04 727 894 001, Roche).
The reporter gene assay of LNcap stable cell line was carried out by the use of RPMI 1640 medium containing 3% DCC-FBS (without G-418). The cell line was dispensed into two (2) white 96-well plates at 30,000 cells/well/50 μL. The cell line was incubated for 24 hours under the condition of 37° C. and 5% CO2, and then the Example compounds of 50 mM DMSO stock were diluted to various concentrations and treated to two (2) white 96-well plates containing cells. Then, IL-6 was treated to a final concentration of 10 ng/mL. After the treatment of Example compounds and IL-6, the cells were cultured for 48 hours under the condition of 37° C. and 5% CO2. After 48 hours, the 96-well plates were observed under a microscope to record the presence or absence of drug precipitation and specificities, and the 96-well plates were kept at room temperature for 30 minutes. Then, in the case of the first 96-well plate, the culture medium on the plate was removed to measure the luciferase activity, and treated with passive lysis buffer at 20 µL/well and shaken for 30 minutes. The luciferase activity was measured on microLUMA LB96P (BERTHOLD) or Centro XS LB 960 (BERTHOLD) instrument using Luciferase assay system (Cat No. E1501, Promega Corporation). In the case of the second 96-well plate, 20 μL of Glo-mix solution was added to measure cytotoxicity by the compounds of the Examples, and the plate was well shaken for 10 minutes and analyzed on microLUMA LB96P (BERTHOLD) instrument using Glo-vial protocol. As a negative control, a 96 well-plate in which culture medium was added but cells were not plated was used. As a positive control, a 96 well-plate in which cells were plated and 0.1% DMSO and culture medium containing stimulation were added was used.
The results of evaluating the inhibitory effects of the compounds of the Examples against dimerization of STAT3 and STAT1 via STAT3 and STAT1 reporter gene assay are represented in Table 1.

SMILES: O=[N+]([O-])c1ccc(CCNc2nc(Cl)nc3ccccc23)cc1 [Example 18, 2-chloro-N-(4-nitrophenethyl)quinazolin-4-amine]
- IC50 [1]: 0.48 µM
- IC50 [2]: 0.21 µM

SMILES: NC(=O)COc1ccc2nc(Cl)cc(NCCc3ccc([N+](=O)[O-])cc3)c2c1 [Example 39, 2-((2-chloro-4-((4-nitrophenethyl)amino)quinolin-6-yl)oxy)acetamide]
- IC50 [1]: > 50 µM
- IC50 [2]: > 50 µM

SMILES: CS(=O)(=O)Nc1ccc(CCNc2nccc3ccccc23)cc1 [Example 75, N-(4-(2-(isoquinolin-1-ylamino)ethyl)phenyl)methanesulfonamide]
- IC50 [1]: 6 µM
- IC50 [2]: 4.3 µM

SMILES: CCOC(=O)COc1ccc2nc(Cl)cc(NCCc3ccc([N+](=O)[O-])cc3)c2c1 [Example 37, ethyl 2-((2-chloro-4-((4-nitrophenethyl)amino)quinolin-6-yl)oxy)acetate]
- IC50 [1]: 10.6 µM
- IC50 [2]: 20.3 µM

SMILES: CS(=O)(=O)Nc1ccc(CCNc2ncnc3ccccc23)cc1 [Example 38, N-(4-(2-(quinazolin-4-ylamino)ethyl)phenyl)methanesulfonamide]
- IC50 [1]: 0.18 µM
- IC50 [2]: 0.17 µM

SMILES: COc1ccc2nc(Cl)cc(NCCc3ccc(NS(C)(=O)=O)cc3)c2c1 [Example 11, N-(4-(2-((2-chloro-6-methoxyquinolin-4-yl)amino)ethyl)phenyl)methanesulfonamide]
- IC50 [1]: 2.6 µM
- IC50 [2]: 1.6 µM

SMILES: O=[N+]([O-])c1ccc(CCNc2ccnc3ccccc23)cc1 [Example 17, N-(4-nitrophenethyl)quinolin-4-amine]
- IC50 [1]: 4.7 µM
- IC50 [2]: 1.6 µM

SMILES: CS(=O)(=O)Nc1ccc(CCNc2ncnc3ccsc23)cc1 [Example 66, N-(4-(2-(thieno[3,2-d]pyrimidin-4-ylamino)ethyl)phenyl)methanesulfonamide]
- IC50 [1]: 0.71 µM
- IC50 [2]: 0.74 µM

SMILES: CS(=O)(=O)Nc1ccc(CCNc2nc(Cl)nc3ccccc23)cc1 [Example 23, N-(4-(2-((2-chloroquinazolin-4-yl)amino)ethyl)phenyl)methanesulfonamide]
- IC50 [1]: 0.25 µM
- IC50 [2]: 0.26 µM

SMILES: O=Nc1ccc(CCNc2cc(Cl)nc3ccccc23)cc1 [Example 20, 2-chloro-N-(4-nitrosophenethyl)quinolin-4-amine]
- IC50 [1]: 0.74 µM
- IC50 [2]: 0.75 µM

SMILES: Cc1cc(NCCc2ccc([N+](=O)[O-])cc2)c2ccccc2n1 [Example 5, 2-methyl-N-(4-nitrophenethyl)quinolin-4-amine]
- IC50 [1]: 47.3 µM
- IC50 [2]: 38.1 µM

SMILES: O=[N+]([O-])c1ccc(CCNc2cc(Cl)nc3ccccc23)cc1 [Example 1, 2-chloro-N-(4-nitrophenethyl)quinolin-4-amine]
- IC50 [1]: 3.5 µM
- IC50 [2]: 2.6 µM

SMILES: O=[N+]([O-])c1ccc(C(F)(F)CNc2ncnc3ccccc23)cc1 [Example 59, N-(2,2-difluoro-2-(4-nitrophenyl)ethyl)quinazolin-4-amine]
- IC50 [1]: 0.16 µM
- IC50 [2]: 0.35 µM

SMILES: CS(=O)(=O)Nc1ccc(CCNc2nccc3occc23)cc1 [Example 73, N-(4-(2-(furo[3,2-c]pyridin-4-ylamino)ethyl)phenyl)methanesulfonamide]
- IC50 [1]: 33 µM
- IC50 [2]: 35.9 µM

SMILES: COc1cc(NCCc2ccc(NS(C)(=O)=O)cc2)c2ccccc2n1 [Example 76, N-(4-(2-((2-methoxyquinolin-4-yl)amino)ethyl)phenyl)methanesulfonamide]
- IC50 [1]: 3.9 µM
- IC50 [2]: 1.2 µM
